This note sets out measurements from patent US8119801B2, “HIV inhibiting 2-(4-cyanophenyl)-6-hydroxylaminopyrimidines” (priority 2005, dated 2012).

Series [1] concerns Strain B, mutation K103N in HIV reverse transcriptase. In words: Antiviral spectrum cellular assay, strain B. Type of series: cell-based. The settings on record: Human immunodeficiency virus 1, read-out: pEC50 against strain B (converted). Here is the method: (§1) Because of the increasing emergence of drug resistant HIV strains, the present compounds were tested for their potency against clinically isolated HIV strains harboring several mutations. These mutations are associated with resistance to reverse transcriptase inhibitors and result in viruses that show various degrees of phenotypic cross-resistance to the currently commercially available drugs such as for instance AZT and delavirdine.
(§2) The antiviral activity of the compound of the present invention is evaluated in the presence of wild type HIV and HIV mutants bearing mutations at the reverse transcriptase gene. The activity of the compounds is evaluated using a cellular assay and the residual activity is expressed in pEC50 values. The columns IIIB and A-G in the table list the pEC50 values against various strains IIIB, A-G.
Strain B contains mutation K103N in HIV reverse transcriptase, […]

Series [2] concerns Strain G, mutations L100I, K103N, E138G, V179I, Y181C, L214F, V276V/I and A327A/V in HIV reverse transcriptase. In words: Antiviral spectrum cellular assay, strain G. The class given is cell-based. The settings on record: for EC50: Human immunodeficiency virus 1, read-out: pEC50 against strain G (converted). Here is the method: as §1, §2
The subject of series [3] is Strain E, mutations L100I and K103N in HIV reverse transcriptase. In words: Antiviral spectrum cellular assay, strain E. Type of series: cell-based. The protocol:
as §1, §2
Strain E contains mutations L100I and K103N in HIV reverse transcriptase, […]

Series [4] has as its system Strain C, mutation L100I in HIV reverse transcriptase. In words: Antiviral spectrum cellular assay, strain C. Type of series: cell-based. Conditions: Human immunodeficiency virus 1, read-out: pEC50 against strain C (converted). Here is the method:
as §1, §2
Strain C contains mutation L100I in HIV reverse transcriptase, […]

Series [5] concerns Strain F, mutations K101E and K103N in HIV reverse transcriptase. In words: Antiviral spectrum cellular assay, strain F. The class given is cell-based. The protocol: as §1, §2
Strain F contains mutations K101E and K103N in HIV reverse transcriptase.

Series [6] relates to Strain IIIB, wild type HIV-LAI strain. In words: Antiviral spectrum cellular assay, strain IIIB. The class given is cell-based. The settings on record: Human immunodeficiency virus 1, IIIB, read-out: pEC50 against strain IIIB (converted). Here is the method: as §1, §2
Strain IIIB is wild type HIV-LAI strain;

In series [7] the test system is Strain A, mutation Y181C in HIV reverse transcriptase. In words: Antiviral spectrum cellular assay, strain A. Type of series: cell-based. Conditions: Human immunodeficiency virus 1, read-out: pEC50 against strain A (converted). Here is the method: as §1, §2
Strain A contains mutation Y181C in HIV reverse transcriptase, […]

Series [8] has as its system Strain D, mutation Y188L and S162K in HIV reverse transcriptase. In words: Antiviral spectrum cellular assay, strain D. The class given is cell-based. Conditions: Human immunodeficiency virus 1, read-out: pEC50 against strain D (converted). Here is the method: as §1, §2
Strain D contains mutation Y188L and S162K in HIV reverse transcriptase, […]

The mark [9] stands for this setting: compared to reference compound A.

As to `Cc1cc(C#N)cc(C)c1Oc1nc(Nc2ccc(C#N)cc2)nc(NO)c1Br` [Compound 1, 4-[[6-hydroxylamino-5-bromo-2-[(4-cyanophenyl)amino]-4-pyrimidinyl]oxy]-3,5-dimethylbenzonitrile], the melting point – broadly, the temperature of the solid-liquid transition – is 211 °C (dec.). Also, the EC50 in series [1] is 2.34 nM. The EC50 in [2] is 479 nM. The “activity against multiple mutated strain G compared to reference compound A” value in series [2] (setting [9]) is on record as “improved activity”. In series [3] (Human immunodeficiency virus 1, read-out: pEC50 against strain E (converted)), the EC50 was 1.86 nM. For the same compound, the “activity against double mutant strain E compared to reference compound A” value in series [3] (setting [9]) is reported as “improved activity”. Moreover, the EC50 in series [4] is 1.2 nM. Also, the EC50 in series [5] (Human immunodeficiency virus 1, read-out: pEC50 against strain F (converted)) was 3.63 nM. For the same compound, the “activity against double mutant strain F compared to reference compound A” value in series [5] (setting [9]) is “improved activity”. In addition, the EC50 in series [6] is 3.98 nM. Further, the EC50 in [7] was 12 nM. Further, the EC50 in series [8] was 3.02 nM.
Regarding `Cc1cc(C#N)cc(C)c1Oc1nc(Nc2ccc(C#N)cc2)nc(N)c1Br` [Compound A, reference compound], the figures for the EC50 in series [2], in [6] and in series [7] were 5750 nM, 2.82 nM and 10 nM, respectively.
